# Data taken from US20110224205A1 (NATIONAL TAIWAN UNIVERSITY, priority 2010, published 2011).
# Like-named read-outs stand apart in the source and are kept apart here.
# Assays:
# IEC-18 cells = assay: MTT assay, IEC-18 intestinal epithelial cells; assay type: cell-based, rat
# Protocol: (§1) A MTT [3-(4,5-dimethylthiazolyl-2)-2,5-diphenyltetrazolium bromide] (Sigma, St Louis, Mo.) assay was performed to determine cell proliferation. Briefly, CL1-5, A549, PC-9, H1650, H1975 and IEC-18 cells were plated in 96-well plates at a density of 5×10^3 cells/well. […] MTT solution to a final concentration in the culture medium 0.5 mg/ml was then added to the wells. After a further 1.5 h of incubation, the medium was removed and DMSO was added to the plates.
# [1] = system: active-p38 in IEC-18 cells; assay: Western blot active-p38, IEC-18; assay type: cell-based, rat
# A549 cells = assay type: cell-based, human
# Protocol: as §1
# [2] = Adverse gastrointestinal effects and survival in xenograft study
# [3] = system: CL1-5 lung adenocarcinoma xenograft; assay: CL1-5 xenograft tumor growth; assay type: in vivo, SCID mice; conditions: control 638.55
# [4] = system: active-p38 in CL1-5 cells; assay: Western blot active-p38, CL1-5; assay type: cell-based, human; conditions: CL1-5, gefitinib 0-20 μM
# [5] = SCID, mouse, in vivo, po, 3 weeks
# H1299 cells = assay type: cell-based, human
# EGFR mRNA in CL1-5 cells = assay: Real-time quantitative RT-PCR of EGFR; assay type: cell-based, human; conditions: CL1-5, 1-20 μM, 24 h
# H1650 cells = assay type: cell-based, human
# Protocol: as §1
# H1975 cells [6] = assay type: cell-based, human
# Protocol: as §1
# CL1-5 cells = assay type: cell-based, human
# Protocol: as §1
# [7] = system: EGFR, pEGFR, AKT, pAKT in A549 cells; assay: Western blot EGFR signaling, A549; assay type: cell-based, human
# [8] = system: pAKT, cyclin D1 in H1975 cells; assay: Western blot EGFR signaling, H1975; assay type: cell-based, human; conditions: H1975, curcumin 1-20 μM, EGF 20 ng/ml
# H1975 cells [9] = conditions: 15 μM curcumin without gefitinib
# [10] = system: EGFR, pEGFR, AKT, pAKT in CL1-5 cells; assay: Western blot EGFR signaling, CL1-5; assay type: cell-based, human
# [11] = system: EGFR protein in lung adenocarcinoma cells; assay: EGFR degradation (Western blot) and ubiquitination (immunoprecipitation); assay type: cell-based; conditions: without MG132
# [12] = system: pEGFR, pAKT in H1299 cells; assay: Western blot EGFR signaling, H1299; assay type: cell-based, human; conditions: gefitinib 1 μM alone, curcumin 10 and 15 μM alone, or gefitinib 1 μM + curcumin 15 μM
smiles,measurement,setting,value
"Cc1ccc(-n2nc(C(C)(C)C)cc2NC(=O)Nc2ccc(OCCN3CCOCC3)c3ccccc23)cc1 [BIRB 796, reference compound]",rescue from toxic effect of gefitinib (cell survival),"IEC-18 cells; IEC-18, curcumin 5 μM, BIRB 796 10 nM, gefitinib 30 and 40 μM",rescue the cells from this toxic effect of gefitinib
same,active-p38 expression on gefitinib-treated cells,"[1]; IEC-18, curcumin 5 μM, BIRB 796 10 nM",significantly decrease the active-p38 expression
CCOC(=O)CC/C(C(=O)/C=C/c1ccc(O)c(OC)c1)=C(O)\C=C\c1ccc(O)c(OC)c1 [JC-15],protection against gefitinib-induced intestinal cell death (FIG. 10),IEC-18 cells,protective effect to reduce gefitinib-induced intestinal cell death
COc1cc(/C=C/C(=O)C(C(C)=O)C(O)/C=C/c2ccc(O)c(OC)c2)ccc1O (centres unmarked) [LL68],protection against gefitinib-induced intestinal cell death (FIG. 10),IEC-18 cells,protective effect to reduce gefitinib-induced intestinal cell death
"COc1cc2ncnc(Nc3ccc(F)c(Cl)c3)c2cc1OCCCN1CCOCC1 [gefitinib, N-(3-Chloro-4-fluoro-phenyl)-7-methoxy-6-(3-morpholin-4-ylpropoxy)quinazolin-4-amine]",IC25 for IEC-18 cell,IEC-18 cells; IEC-18,30 µM
same,IEC-18 cell survival,"IEC-18 cells; gefitinib 30 and 40 μM, 24 h",significantly reduce IEC-18 cell survival
same,cell proliferation (FIG. 4A),A549 cells,slight inhibition of cell proliferation
same,body weight,[2],dramatic body weight lost
same,diarrhea,[2],obviously diarrhea side effect
same,morphology / full length of the intestine,[2],shorter and thinner
same,average tumor size at the end of the study,[3]; gefitinib 120 mg/kg orally once daily,138.32 mm^3
same,p38 activation,[4],did not elevate the p38 activation
same,active-p38,"[1]; IEC-18, gefitinib 0-20 μM",significant increased in a dose dependent manner
same,survival rate,[5],33%
COc1cc(/C=C/C(O)=C/C(=O)/C=C/c2ccc(O)cc2)ccc1O [LL-18],protection against gefitinib-induced intestinal cell death (FIG. 10),IEC-18 cells,protective effect to reduce gefitinib-induced intestinal cell death
"COc1cc(/C=C/C(=O)/C=C(O)/C=C/c2ccc(O)c(OC)c2)ccc1O [curcumin, diferuloylmethane]",levels of EGFR and AKT in the tumors,CL1-5 tumor tissue; Western blot of tumor tissue,decreased
same,PCNA marker in tumor tissue,CL1-5 tumor tissue; immunohistochemical staining,decreased
same,cell apoptosis in tumor tissue (TUNEL),"CL1-5 tumor tissue; in situ cell death detection, vs control (and gefitinib only)",induced cell apoptosis
same,cell proliferation (FIG. 4A),H1299 cells,slight inhibition of cell proliferation
same,proliferation (FIG. 1A right),"H1299 cells; H1299, curcumin alone",inhibited by curcumin in a concentration-dependent manner
same,EGFR mRNA expression,EGFR mRNA in CL1-5 cells,reduce EGFR mRNA expression in a concentration-dependent manner
same,rescue from toxic effect of gefitinib (cell survival),IEC-18 cells,rescue the cells from this toxic effect of gefitinib
same,cell proliferation (FIG. 4A),H1650 cells,slight inhibition of cell proliferation
same,proliferation (FIG. 1A right),"H1650 cells; H1650, curcumin alone",inhibited by curcumin in a concentration-dependent manner
same,cell proliferation (FIG. 4A),H1975 cells [6],slight inhibition of cell proliferation
same,proliferation (FIG. 1A right),"H1975 cells [6]; H1975, curcumin alone",inhibited by curcumin in a concentration-dependent manner
same,cell proliferation (FIG. 4A),A549 cells,slight inhibition of cell proliferation
same,proliferation (FIG. 1A right),"A549 cells; A549, curcumin alone",inhibited by curcumin in a concentration-dependent manner
same,cell proliferation (FIG. 4A),CL1-5 cells,slight inhibition of cell proliferation
same,proliferation (FIG. 1A right),"CL1-5 cells; CL1-5, curcumin alone",inhibited by curcumin in a concentration-dependent manner
same,"EGFR, pEGFR, AKT, and pAKT protein expression","[7]; A549, curcumin 1-20 μM, EGF 20 ng/ml","reduce EGFR, pEGFR, AKT, and pAKT protein expression"
same,pEGFR and pAKT (FIG. 4B),"[7]; A549, gefitinib 1 μM alone, curcumin 10 and 15 μM alone, or gefitinib 1 μM + curcumin 15 μM",minimal suppressive effect
same,morphology / full length of the intestine,[2],no obvious differences
same,average tumor size at the end of the study,[3]; curcumin 1 g/kg orally once daily,354.91 mm^3
same,AKT phosphorylation,[8],not altered
same,level of cyclin D1,[8],significantly reduced
same,cells in apoptosis,H1975 cells [9],about 90%
same,"EGFR, pEGFR, AKT, and pAKT protein expression","[10]; CL1-5, curcumin 1-20 μM, EGF 20 ng/ml","reduce EGFR, pEGFR, AKT, and pAKT protein expression"
same,pEGFR and pAKT (FIG. 4B),"[10]; CL1-5, gefitinib 1 μM alone, curcumin 10 and 15 μM alone, or gefitinib 1 μM + curcumin 15 μM",minimal suppressive effect
same,EGFR protein expression,[11],inhibit the EGFR protein expression in a dose-dependent manner
same,pEGFR and pAKT (FIG. 4B),[12],minimal suppressive effect
